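Following 48 hours of exposure in 96-well plates, responses at five concentrations were used to interpolate endpoints linearly. GI50 is the concentration that inhibits growth by half. TGI: concentration producing complete growth inhibition.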
Tests used:
Experiment in all cases: NCI anticancer screen, dose series, 48 h
IGROV1 ovarian = tested on: IGROV1 ovarian
M14 melanoma = tested on: M14 melanoma
UACC-257 melanoma = tested on: UACC-257 melanoma
SF-539 CNS = tested on: SF-539 CNS
HOP-18 NSCLC = tested on: HOP-18 NSCLC
SNB-19 CNS = tested on: SNB-19 CNS
HOP-92 NSCLC = tested on: HOP-92 NSCLC
M19-MEL melanoma = tested on: M19-MEL melanoma
T-47D breast = tested on: T-47D breast
BT-549 breast = tested on: BT-549 breast

Compound	TGI (IGROV1 ovarian) [µM]	TGI (M14 melanoma) [µM]	TGI (UACC-257 melanoma) [µM]	TGI (SF-539 CNS) [µM]	TGI (HOP-18 NSCLC) [µM]	TGI (SNB-19 CNS) [µM]	TGI (HOP-92 NSCLC) [µM]	TGI (M19-MEL melanoma) [µM]	GI50 (M19-MEL melanoma) [µM]	GI50 (IGROV1 ovarian) [µM]	GI50 (M14 melanoma) [µM]	GI50 (UACC-257 melanoma) [µM]	GI50 (SF-539 CNS) [µM]	GI50 (SNB-19 CNS) [µM]	GI50 (HOP-92 NSCLC) [µM]	TGI (T-47D breast) [µM]	TGI (BT-549 breast) [µM]
CSc1ccc(-c2cn3ccsc3n2)c(O)c1	> 100	> 100	> 100	> 57.3	> 100	> 100	> 100	–	–	–	–	–	–	–	–	–	–
C/C(=N\O)c1sc(-n2nc(-c3ccccc3)cc2-c2ccccc2)nc1C	22	18.3	21.3	16.7	–	17.9	–	20.8	–	–	–	–	–	–	–	–	–
Cc1cc(N(CCC#N)CCC#N)ccc1/C=C1/CN(N2C(=O)/C(=C/c3ccc(N(CCC#N)CCC#N)cc3C)N=C2c2ccccc2)C(c2ccccc2)=N1	> 100	> 100	> 100	> 100	> 100	> 100	> 100	> 100	–	–	–	–	–	–	–	–	–
Cc1cc(C)c(C(=O)O)c(N)c1O	> 100	> 100	> 100	–	–	> 100	–	> 100	–	–	–	–	–	–	–	–	–
O=C1c2ccccc2C(=O)N1/N=C\c1ccc(Br)cc1	> 100	> 100	> 100	> 100	> 10	> 100	> 100	> 100	> 100	> 100	> 100	> 100	> 100	> 100	> 100	–	–
CSc1nc(NC2OCC(OC(C)=O)C(OC(C)=O)C2OC(C)=O)c(N=CC=Nc2c(NC3OCC(OC(C)=O)C(OC(C)=O)C3OC(C)=O)nc(SC)n(C)c2=O)c(=O)n1C (stereo not given)	> 100	> 100	> 100	> 100	> 100	> 100	> 100	> 100	–	–	–	–	–	–	–	–	–
COc1cccc(/C=C(/C(=O)O)c2cc(OC)c(OC)c(OC)c2)c1	> 100	> 100	> 100	> 100	> 100	> 100	> 100	> 100	–	–	–	–	–	–	–	–	–
C[C@]12CCC[C@H](OC=O)C1(O)C[C@H](C(=O)O)CC2 (stereo not given in full)	> 100	> 100	> 100	> 100	> 100	> 100	> 100	> 100	–	–	–	–	–	–	–	–	–
CCOC(=O)C12CCCC1(O)N(NC(=O)c1cccc(Cl)c1)C(C)=C2C(=O)OC (stereo not given)	> 100	> 100	> 100	> 100	–	> 100	–	> 100	–	–	–	–	–	–	–	–	–
Cc1nc(NC(=S)NC(=O)c2ccc(Cl)c(Cl)c2)sc1C(=O)/C=C/c1ccccc1[N+](=O)[O-]	66.7	51.5	89.1	40.5	41.7	46.9	24.2	79.7	–	–	–	–	–	–	–	–	–
CCCCCCCC[N+](C)(C)Cc1ccc(C[N+](C)(C)CCCCCCCC)cc1	65.1	> 100	> 100	–	> 100	> 100	88.1	> 100	–	–	–	–	–	–	–	–	–
COc1ccc2cc(C(=O)c3ccccc3C(=O)O)ccc2c1	> 100	> 100	> 100	–	> 100	> 100	–	> 100	–	–	–	–	–	–	–	–	–
CC1(C)SC2C(C(=O)O)N=C(Cc3ccccc3)N2C1C(=O)O (stereo not given)	> 100	> 100	49.2	57.3	–	> 100	> 100	–	–	–	–	–	–	–	–	73.7	> 100

— PubChem BioAssay (NCI)
